Measured values published in patent US7943606B2, “Compositions and methods to control abnormal cell growth” (CanCure Laboratories, LLC, priority 2005, dated 2011).
Counter-ions that a name gives are not always drawn. Like-named read-outs stand apart in the source and are kept apart here.

Assays:
MEL-28 cells = test: Viability of MEL-28 melanoma cells; type: cell-based, human; details: for inhibition at 100 µM: Homo sapiens, SK-MEL-28, read-out: Decrease in cell number (maximal decrease = 100%), MEL-28
Method: (§1) To quantify cell death, around the time when significant and characteristic morphological changes took place, cells were pulse-labeled for 10 minutes with [^3H]thymidine to measure DNA activity as described elsewhere [Tomono, M. and Kiss, Z. (1995), “Ethanol enhances the stimulatory effects of insulin and insulin-like growth factor-I on DNA synthesis in NIH 3T3 fibroblasts,” Biochem. Biophys. Res. Commun. 208, 63-67]. Also, cells were collected as suspensions using trypsin, an established method in cell biology, followed by re-plating of cells in fresh tissue culture medium. If no viable cells were obtained after one week in culture, it meant that the cells at the time of re-plating were dead. Survival values obtained with untreated cells were considered 100%. For the determination of relative number of viable cells after treatments, in most cases the MTT assay was used. This calorimetric assay is based on the ability of living cells, but not dead cells, to reduce 3-(4,5-dimethyl thiazol-2-yl)-2,5-diphenyltetrazolium bromide [Carmichael, J, De Graff, W. G., Gazdar, A. F., Minna, J. D. and Mitchell, J. B. (1987), “Evaluation of tetrazolium-based semi-automated calorimetric assay: Assessment of chemosensitivity testing,” Cancer Res. 47, 936-942]. For this assay, cells were plated in 96-well plates, and the MTT assay was performed both in untreated and treated cell cultures. The MTT assay also was performed at the start of treatments to allow assessment of proliferation rates in the control and treated cell cultures.
About 60% confluent cultures of MEL-28 cells, cultured in 12-well plates in MEM medium supplemented with 10% FBS, were either untreated (FIG. 2A), or were treated with 100 μM CCDTHT (CCompound3) for 72 hours (FIG. 2B).
The NIH 3T3 (normal) mouse fibroblast, A431 human epidermoid adenocarcinoma, and MCF-7 human breast cancer cells were cultured in DMEM medium containing 10% FBS. The MEL-28 human melanoma cells were cultured in MEM medium containing 10% FBS. The HT-29 human colon adenocarcinoma cells were cultured in McCoy's 5a medium containing 10% FBS. The A549 human lung carcinoma cells were maintained in Ham's F12K medium containing 10% FBS. Cells were seeded into 96-well plates and treated at ˜70-90% confluency. Two hours before treatments the medium was changed for fresh 10% serum medium, and then the cells were incubated for 72 hours in the presence of 0-200 μM of CCompound1 (●) or CCompound3 (CCDTHT) (▴), as indicated. The MTT assay was used to determine cell viability after treatments. The values, shown in FIGS. 5A-5F and expressed as percent decrease in viability compared to the untreated control cells, are the mean±std. dev. of 8 incubations in one experiment.
(§2) NIH3T3, T47D, A-431, HT-29, and MEL-28 cells were cultured as indicated earlier. CaOV-3 human ovarian cancer cells were cultured in DMEM containing 10% FBS. ZR-75-1 human estrogen receptor-positive breast cancer cells were maintained in RPMI 1640 medium supplemented with 10% FBS. HTB-157 human fetal fibroblasts, MEL-24 human malignant melanoma cells, Hep G2 human hepatoblastoma cells, and CaCO-2 human colon adenocarcinoma cells were maintained in Eagles's MEM containing 10% FBS. MB-231 human estrogen receptor-negative breast cancer cells were maintained in Leibovitz's L-15 medium supplemented with 10% FBS. Cells were seeded into 96-well plates and treated at ˜70-90% confluency. Two hours prior to treatments the medium was changed for fresh 10% serum medium, and then the cells were incubated for 10 days in the absence (□) or presence of 50 μM CCDTHT ? or 100 μM CCDTHT (▪). The medium was changed and the cells were re-treated on days 3 and 6. The MTT assay was used to determine cell viability on day 10. The data, shown in FIG. 6, are the mean±std. dev. of 8 incubations in one experiment.

T47D cells = test: Viability of T47D breast cancer cells; type: cell-based, human; details: for inhibition at 100 µM / IC50: Homo sapiens, T47D; for inhibition at 100 µM: read-out: Decrease in cell number (maximal decrease = 100%), T47D
Method: as §1
About 40% confluent cultures of T47D cells, cultured in 12-well plates in RPMI 1640 medium supplemented with 0.2 IU bovine insulin and 10% FBS, were either untreated (FIG. 4A), or were treated with 100 μM CCDTHT (CCompound3) for 72 hours (FIG. 4B).
as §2
The MRC-5 cell line is derived from normal lung tissue of a […] fetus. MRC-5 cells were maintained and treated in Eagles Medium with Hanks' BSS containing 10% fetal bovine serum. The T47D cells were maintained and treated in RPMI 1640 medium supplemented with 0.2 IU bovine insulin and 10% fetal bovine serum. The CaOV-3 human ovarian cancer cells were cultured in Dulbecco's modified Eagle's medium containing 10% fetal bovine serum. The cells were seeded in 96-well plates either at 10,000 cells per well or 30,000 cells per well to examine the antiproliferative and cytotoxic effects of various CC compounds, respectively. The cells were incubated for 24 hours, then the medium was changed followed by the treatments of cultures 2 hours after the medium change. At this point, cell cultures seeded at 10,000 cells per well and 30,000 cells per well were 25-35% and 80-90% confluent, respectively.

[1] = 100 μM, 72 hours, 12-well plates

Row | SMILES | inhibition at 100 µM (MEL-28 cells; 100 μM, 72 hours) [%] | inhibition at 100 µM (T47D cells; 100 μM, 72 hours) [%] | other results
1 | CC[N+](C)(CC)CCCOCc1ccc2sc3ccccc3c(=O)c2c1 [CCcompound10, N,N-Diethyl-N-methyl-3-[(9-oxo-9H-thioxanthen-2-yl)methoxy]-propane-1-aminium iodide] | 11 | 51 | –
2 | C[N+](C)(CCCO)Cc1ccc2sc3ccccc3c(=O)c2c1 [CCcompound15, 3-Hydroxy-N,N-dimethyl-N-[(9-oxo-9H-thioxanthen-2-yl)methyl]propane-1-aminium bromide] | 19 | 35 | –
3 | CC[N+](CC)(CCO)Cc1ccc2sc3ccccc3c(=O)c2c1 [CCcompound14, 2-Hydroxy-N,N-Diethyl-N-[(9-oxo-9H-thioxanthen-2-yl)methyl]-ethanaminium bromide] | 90 | 58 | –
4 | C[N+](C)(CCO)Cc1ccc2sc3ccccc3c(=O)c2c1 [CCcompound13, 2-Hydroxy-N,N-dimethyl-N-[(9-oxo-9H-thioxanthen-2-yl)methyl]-ethanaminium bromide] | 11 | 47 | –
5 | CC[NH+](CC)CCCOCc1ccc2sc3ccccc3c(=O)c2c1 [CCcompound12, 2-{[3-(Diethylamino)propoxy]meth-yl}-9H-thioxanthen-9-one hydrochloride] | 71 | 48 | –
6 | CC[N+](CC)(CCCO)Cc1ccc2sc3ccccc3c(=O)c2c1 [CCcompound16, 3-Hydroxy-N,N-diethyl-N-[(9-oxo-9H-thioxanthen-2-yl)methyl]-propane-1-aminium bromide] | 10 | 48 | –
7 | CC[N+](CC)(CC)CCCOCc1ccc2sc3ccccc3c(=O)c2c1 [CCcompound9, N,N,N-Triethyl-3-[(9-oxo-9H-thioxanthen-2-yl)methoxy]-propane-1-aminium iodide] | 14 | 52 | –
8 | CC[N+](C)(C)CCCOCc1ccc2sc3ccccc3c(=O)c2c1 [CCcompound11, N,N-Dimethyl-N-ethyl-3-[(9-oxo-9H-thioxanthen-2-yl)methoxy]-propane-1-aminium iodide] | 94 | 59 | –
9 | CC[N+](C)(CC)CCOCc1ccc2sc3ccccc3c(=O)c2c1.[I-] [CCDTHT, N,N-diethyl-N-methyl-2-[(9-oxo-9H-thioxanthen-2-yl)methoxy]-ethanaminium iodide] | 60 | 61 | reduction of cell numbers, MEL-28, CCDTHT versus CCompound1 (MEL-28 cells; 0-200 μM, 72 hours, MTT): clearly more effective than CCompound1; reversibility: proliferation in fresh medium after treatment, MEL-28 (MEL-28 cells; 50 μM 48 hours, then 96 hours without CCDTHT): not sufficient to suppress proliferation; DNA synthesis (radiolabeled thymidine), MEL-28 (MEL-28 cells; 100 μM, 72 hours): did not synthesize detectable amount of DNA; morphology / cell death, MEL-28 (MEL-28 cells; [1]): practically all cells rounded up; decrease in the number of viable cells versus 0.5 mM HC-3, MEL-28 (MEL-28 cells; 100 μM, 72 hours, MTT): much greater decreases in the number of viable cells compared to 0.5 mM HC-3; sensitivity to the inhibitory actions, MEL-28 (MEL-28 cells; 50 and 100 μM, 10 days, MTT): very sensitive; DNA synthesis after re-seeding treated T47D cells (T47D cells; 100 μM 72 hours, re-seeded, 96 hours later): no DNA synthesis could be detected; morphology / cell death, T47D (T47D cells; [1]): practically all cells rounded up; sensitivity to the inhibitory actions, T47D (T47D cells; 50 and 100 μM, 10 days, MTT): very sensitive; IC50 (T47D cells; 10,000 cells per well (25-35% confluent), 72 hours, MTT, read-out: IC50 values, Antiproliferative, T47D): 47 µM; IC50 (T47D cells; 30,000 cells per well (80-90% confluent), 72 hours, MTT, read-out: IC50 values, Cytotoxic, T47D): 66 µM
